Reference: US6737383B1, “Herbicidal oxadiazolidines” (priority 1999, dated 2004)

Assays:
[1] = tested on: blackgrass; assay: Test B pre/postemergence blackgrass; type: in vivo, Alopecurus myosuroides
In short: (§1)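 Herbicidal effect was estimated by eye on a ten-point control scale after plants spent twelve to sixteen days in a greenhouse following soil or foliar treatment. Foliar sprays targeted plants at one to four leaves; all doses were formulated in a non-phytotoxic solvent with surfactant.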

[2] = tested on: cocklebur; assay: Test B pre/postemergence cocklebur; type: in vivo, Xanthium strumarium
In short: as §1

[3] = tested on: corn; assay: Test B pre/postemergence corn; type: in vivo, Zea mays
In short: as §1

[4] = tested on: crabgrass; assay: Test B pre/postemergence crabgrass; type: in vivo, Digitaria sanguinalis
In short: as §1

[5] = tested on: giant foxtail; assay: Test B pre/postemergence giant foxtail; type: in vivo, Setaria faberii
In short: as §1

[6] = tested on: morningglory; assay: Test B pre/postemergence morningglory; type: in vivo, Ipomoea hederacea
In short: as §1

[7] = tested on: pigweed; assay: Test B pre/postemergence pigweed; type: in vivo, Amaranthus retroflexus
In short: as §1

[8] = tested on: rape; assay: Test B pre/postemergence rape; type: in vivo, Brassica napus
In short: as §1

[9] = tested on: soybean; assay: Test B pre/postemergence soybean; type: in vivo, Glycine max
In short: as §1

[10] = tested on: sugar beet; assay: Test B pre/postemergence sugar beet; type: in vivo, Beta vulgaris
In short: as §1

[11] = tested on: velvetleaf; assay: Test B pre/postemergence velvetleaf; type: in vivo, Abutilon theophrasti
In short: as §1

[12] = tested on: wheat; assay: Test B pre/postemergence wheat; type: in vivo, Triticum aestivum
In short: as §1

[13] = tested on: purple nutsedge; assay: Test B pre/postemergence purple nutsedge; type: in vivo, Cyperus rotundus
In short: as §1

[14] = tested on: rice; assay: Test B flood test rice; type: in vivo, Oryza sativa
In short: (§2)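 Each value is a visual injury score relative to controls, with 10 meaning complete control and 0 no effect. Evaluation took place twelve to sixteen days after the 2-leaf-stage plants were treated and kept in the greenhouse.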

[15] = tested on: smallflower flatsedge; assay: Test B flood test smallflower flatsedge; type: in vivo, Cyperus difformis
In short: as §2

[16] = tested on: duck salad; assay: Test B flood test duck salad; type: in vivo, Heteranthera limosa
In short: as §2

[17] = Postemergence, Rate 62 g/ha, scale 0 to 10, 0 is no effect, 10 is complete control
[18] = Postemergence, Rate 250 g/ha, scale 0 to 10, 0 no effect, 10 complete control
[19] = Preemergence, Rate 62 g/ha, scale 0 to 10, 0 is no effect, 10 is complete control
[20] = Preemergence, Rate 125 g/ha, scale 0 to 10 (0 no effect, 10 complete control)
[21] = Preemergence, Rate 250 g/ha, scale of 0 to 10 where 0 is no effect and 10 is complete control
[22] = Preemergence, Rate 500 g/ha, scale 0 (no effect) to 10 (complete control)
[23] = Rate 125 g/ha, Postemergence, scale 0 to 10, 0 no effect, 10 complete control
[24] = Rate 500 g/ha, Postemergence, 0 to 10 scale (0 no effect, 10 complete control)
[25] = Rate 125 g/ha, Postemergence section (flood test species), scale 0 to 10, 0 no effect, 10 complete control
[26] = Rate 500 g/ha, Postemergence section of Table B, 0 to 10 scale (0 no effect, 10 complete control)
[27] = flood test, listed under Postemergence, Rate 250 g/ha, scale 0 to 10, 0 no effect, 10 complete control

CC(C)N(C(=O)n1oc(=O)n(-c2ccccc2C(F)(F)F)c1=O)c1ccc(F)cc1 [Compound 15]
Blackgrass plant response rating [1, 17]: 0 | Blackgrass plant response rating [1, 18]: 0 | Plant response rating, Blackgrass [1, 19]: 0 | Plant response rating, Blackgrass [1, 20]: 0 | Plant response rating, Blackgrass [1, 21]: 0 | Blackgrass plant response rating [1, 22]: 0 | Blackgrass plant response rating [1, 23]: 0 | Blackgrass plant response rating [1, 24]: 3 | Cocklebur plant response rating [2, 17]: 0 | Cocklebur plant response rating [2, 18]: 5 | Plant response rating, Cocklebur [2, 19]: 0 | Plant response rating, Cocklebur [2, 20]: 0 | Cocklebur plant response rating [2, 22]: 0 | Cocklebur plant response rating [2, 23]: 0 | Cocklebur plant response rating [2, 24]: 8 | Corn plant response rating [3, 17]: 0 | Corn plant response rating [3, 18]: 0 | Plant response rating, Corn [3, 19]: 0 | Plant response rating, Corn [3, 20]: 0 | Corn plant response rating [3, 22]: 0 | Corn plant response rating [3, 23]: 0 | Corn plant response rating [3, 24]: 0 | Crabgrass plant response rating [4, 17]: 0 | Crabgrass plant response rating [4, 18]: 3 | Plant response rating, Crabgrass [4, 19]: 0 | Plant response rating, Crabgrass [4, 20]: 2 | Crabgrass plant response rating [4, 22]: 10 | Crabgrass plant response rating [4, 23]: 1 | Crabgrass plant response rating [4, 24]: 8 | Giant foxtail plant response rating [5, 17]: 0 | Giant foxtail plant response rating [5, 18]: 0 | Plant response rating, Giant foxtail [5, 19]: 6 | Plant response rating, Giant foxtail [5, 20]: 8 | Giant foxtail plant response rating [5, 22]: 10 | Giant foxtail plant response rating [5, 23]: 0 | Giant foxtail plant response rating [5, 24]: 0 | Morningglory plant response rating [6, 17]: 2 | Morningglory plant response rating [6, 18]: 6 | Plant response rating, Morningglory [6, 19]: 0 | Plant response rating, Morningglory [6, 20]: 0 | Morningglory plant response rating [6, 22]: 0 | Morningglory plant response rating [6, 23]: 2 | Morningglory plant response rating [6, 24]: 7 | Redroot pigweed plant response rating [7, 17]: 0 | Redroot pigweed plant response rating [7, 18]: 2 | Plant response rating, Redroot pigweed [7, 19]: 0 | Plant response rating, Redroot pigweed [7, 20]: 0 | Plant response rating, Redroot pigweed [7, 21]: 0 | Redroot pigweed plant response rating [7, 22]: 8 | Redroot pigweed plant response rating [7, 23]: 0 | Redroot pigweed plant response rating [7, 24]: 6 | Rape plant response rating [8, 17]: 0 | Rape plant response rating [8, 18]: 0 | Plant response rating, Rape [8, 19]: 0 | Plant response rating, Rape [8, 20]: 0 | Plant response rating, Rape [8, 21]: 0 | Rape plant response rating [8, 22]: 0 | Rape plant response rating [8, 23]: 0 | Rape plant response rating [8, 24]: 0 | Soybean plant response rating [9, 17]: 2 | Soybean plant response rating [9, 18]: 2 | Plant response rating, Soybean [9, 19]: 0 | Plant response rating, Soybean [9, 20]: 0 | Soybean plant response rating [9, 22]: 0 | Soybean plant response rating [9, 23]: 2 | Sugarbeets plant response rating [10, 17]: 0 | Sugarbeets plant response rating [10, 18]: 0 | Plant response rating, Sugarbeets [10, 19]: 0 | Plant response rating, Sugarbeets [10, 20]: 0 | Plant response rating, Sugarbeets [10, 21]: 3 | Sugarbeets plant response rating [10, 22]: 6 | Sugarbeets plant response rating [10, 23]: 0 | Velvetleaf plant response rating [11, 17]: 0 | Velvetleaf plant response rating [11, 18]: 0 | Plant response rating, Velvetleaf [11, 19]: 0 | Plant response rating, Velvetleaf [11, 20]: 0 | Velvetleaf plant response rating [11, 22]: 0 | Velvetleaf plant response rating [11, 23]: 0 | Wheat plant response rating [12, 17]: 0 | Wheat plant response rating [12, 18]: 0 | Plant response rating, Wheat [12, 19]: 0 | Plant response rating, Wheat [12, 20]: 0 | Plant response rating, Wheat [12, 21]: 0 | Wheat plant response rating [12, 22]: 0 | Wheat plant response rating [12, 23]: 0 | Nutsedge plant response rating [13, 17]: 0 | Nutsedge plant response rating [13, 18]: 0 | Plant response rating, Nutsedge [13, 19]: 0 | Plant response rating, Nutsedge [13, 20]: 0 | Nutsedge plant response rating [13, 22]: 0 | Nutsedge plant response rating [13, 23]: 0 | Nutsedge plant response rating [13, 24]: 0 | Rice plant response rating [14, 17]: 0 | Rice plant response rating [14, 25]: 0 | Rice plant response rating [14, 26]: 0 | Rice plant response rating [14, 27]: 0 | S. Flatsedge plant response rating [15, 17]: 0 | S. Flatsedge plant response rating [15, 25]: 0 | S. Flatsedge plant response rating [15, 27]: 0 | Ducksalad plant response rating [16, 17]: 0 | Ducksalad plant response rating [16, 25]: 0 | Ducksalad plant response rating [16, 26]: 0 | Ducksalad plant response rating [16, 27]: 0
